Reference: patent US20230105212A1, “BIPHENYL DERIVATIVE INHIBITOR, PREPARATION METHOD THEREFOR AND USE THEREOF” (SHANGHAI HANSOH BIOMEDICAL CO., LTD., priority 2020, published 2023)

How the values were obtained:
[1] = Plasma protein binding rate (equilibrium dialysis); assay type: in vitro ADME; conditions: mouse plasma, equilibrium dialysis 37° C. 5 hours
Protocol: Test Embodiment 8. Plasma Protein Binding Rate Experiment
The purpose of this experimental method was to detect the plasma protein binding of the embodiment compounds in plasma.
The frozen plasma was thawed at room temperature or in a water bath at 37° C., then centrifuged at 3500 rpm for 5 min, and the supernatant was taken.
Preparation of compound working solution: Stock solutions were diluted with DMSO to a final concentration of 1 mM.
2.5 μL of compound working solution was added to 497.5 μL of blank plasma to a final concentration of 5 μM, shaked and mixed well.
1) The equilibrium dialysis device was prepared, and the detection membrane device was put into the equilibrium dialysis 96-well plate;
2) 200 μL of the prepared plasma solution was added to the membrane, n=2;
3) another 5 μL of plasma solution was taken, diluted 10 times with 45 μL of blank plasma of the same species, and 200 μL of acetonitrile termination solution containing internal standard was added, and stored in a −20° C. refrigerator;
4) 350 μL of dialysate (100 mM phosphate buffer) was added outside the membrane;
5) the dialysis plate was sealed and incubated in a 37° C. water bath for 5 hours;
6) after dialysis, 5 μL was taken out from the sample hole in the membrane, and diluted 10 times with 45 μL of blank plasma of the same species; 50 μL of dialysate was taken out from the sample hole outside the membrane, and 200 μL of acetonitrile termination solution containing internal standard was added;
7) the supernatant was taken after sample centrifugation;

[2] = Pharmacokinetic test of plasma and tumor of tumor-bearing nude mice; assay type: in vivo; conditions: tumor-bearing nude mice, p.o. 30 mg/kg; for Kp: female, mouse, tumor/plasma, po, read-out: Tumor plasma ratio
Protocol: Test Embodiment 7. Pharmacokinetic Test of Plasma and Tumor of Tumor-Bearing Nude Mice
Taking tumor-bearing nude mice as the test animals, the pharmacokinetic behavior in the plasma and tumor of tumor-bearing nude mice of the following compound embodiments was studied when orally administered at a dose of 30 mg/kg.
Tumor-bearing nude mouse 21/embodiment, female, Shanghai B&K Laboratory Animal Co., Ltd., animal production license number (SCXK (Shanghai) 2013-0006 No. 311620400001794).
0.5% HPMC (1% Tween 80), dissolved by sonication, to prepare a clear solution or a homogeneous suspension.
Tumor-bearing nude mice, female; p.o. after overnight fasting, respectively, at a dose of 30 mg/kg, administered in a volume of 10 mL/kg.
Before and after administration of tumor-bearing nude mice, at 0, 1, 2, 4, 6, 8, 16 and 24 hours, 0.1 mL of blood was collected from the orbit, placed in an EDTA-K2 test tube, and centrifuged at 6000 rpm at 4° C. for 6 min to separate the plasma. After dissection, the tumor tissue was weighed and stored at −80° C.
1) Tumor tissue was homogenized with methanol and water at a ratio of 1:3, and then centrifuged to get the supernatant. 40 μL of tumor homogenate supernatant and 40 μL of plasma sample were added to 160 μL of acetonitrile for precipitation, and after mixing, centrifuged at 3500×g for 5 to 20 minutes.
2) 100 μL of the supernatant solution after treatment was taken for LC/MS/MS to analyze the concentration of the compounds to be tested.
2.7 Liquid Phase Analysis • Liquid phase condition: Shimadzu LC-20AD pump • MS conditions: AB Sciex API 4000 Mass Spectrometer • Chromatographic column: phenomenex Gemiu 5 μm C18 50×4.6 mm • Mobile phase: A solution was aqueous 0.1% formic acid solution, B solution was acetonitrile • Flow rate: 0.8 mL/min • Elution time: 0 to 4.0 minutes, the eluent was as follows:
The main parameters of pharmacokinetics were calculated with WinNonlin 8.2, and the results of the tumor-bearing nude mice pharmacokinetic experiments were shown in the following table: […]

[3] = system: NFAT-luc2/PD1 Jurkat cells; test: In vitro cytotoxicity on NFAT-luc2/PD1 Jurkat cells (CellTiter-Glo); assay type: cell-based; conditions: 72 hours; for IC50: Homo sapiens, Jurkat
Method in brief: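 Cells plated overnight at 37° C, 5% CO2, then exposed to serial compound dilutions for 72 hours. Viability measured by CellTiter-Glo luminescence; inhibition rate versus vehicle fitted by nonlinear regression to give IC50.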

[4] = system: C57 mice subcutaneous xenografts tumor of MC38-hPDL1 cells; test: Tumor inhibition experiment on MC38-hPDL1 xenograft model; assay type: in vivo
Protocol: Test Embodiment 10. Tumor Inhibition Experiment on MC38-hPDL1 Xenograft Model
To evaluate the antitumor activity of the test compounds against C57 mice subcutaneous xenografts tumor of MC38-hPDL1 cells.
MC38-hPDL1 cells were taken out from the cell bank, added to DMEM medium (DMEM+10% FBS) after recovery, and placed in a CO2 incubator (incubator temperature was 37° C., CO2 concentration was 5%) to culture. MC38-hPDL1 cells were collected when the number of cells increased to the required number of inoculation in vivo. Counted with an automatic cell counter, and resuspend the cells with PBS according to the counting results to prepare a cell suspension (density was 1×10^6/mL), and placed in an ice box for use.
6-8-week-old female C57 mice weighing approximately 18-22 grams were used. Mice were housed in SPF animal room, single cage, 4-5 mice per cage. All cages, litter and water were sterilized at high temperature before use, and all animals had free access to food and water. Before the start of the experiment, C57 mice were marked with a disposable ear tag for rats and mice, and the skin of the inoculation site was disinfected with 75% alcohol before inoculation. Each mouse was subcutaneously inoculated with 0.1 mL (containing 1*10^5 cells) of MC38-hPDL1 cells on the right back. […] […] Tumor volume was measured twice a week and mice were weighed twice a week, and tumor TGI (%) was calculated.
Tumor volume (mm^3), the calculation formula was: V=0.5*D*d*d, wherein D and d were the long and short diameters of the tumor, respectively.
When the tumor regressed, TGI(%)=[1−(average tumor volume at the end of administration of a treatment group-average tumor volume at the beginning of administration of this treatment group)/average tumor volume at the beginning of administration of this treatment group]×100%.

Row | fraction unbound at 5 h, 5 μM [1] | Kp [2] | Drug concentration in plasma [2] [µg/mL] | Drug concentration in tumor [2] [µg/mL] | SMILES | other results
1 | 0.0044 |  |  |  | COc1nc(-c2cccc(-c3cccc(NC(=O)c4nc5c(n4C)CCN(C)C5)c3Cl)c2Cl)ccc1CN1CC(NC(C)=O)C1 [Embodiment 180, N-(3′-(5-((3-Acetylaminoazetidin-1-yl)methyl)-6-methoxypyridin-2-yl)-2,2′-dichloro-[1,1′-biphenyl]-3-yl)-1,5-dimethyl-4,5,6,7-tetrahydro-1H-imidazo[4,5-c]pyridine-2-carboxamide] | 
2 | 0.0181 | 4.6 | 0.153 | 0.707 | COc1nc(-c2cccc(-c3cccc(NC(=O)c4nc5c(n4C)CCN(C)C5)c3Cl)c2Cl)cnc1CN1CC2(C1)CN(C(C)=O)C2 [Embodiment 152, N-(3′-(5-((6-Acetyl-2,6-diazaspiro[3.3]heptan-2-yl)methyl)-6-methoxypyrazin-2-yl)-2,2′-dichloro-[1,1′-biphenyl]-3-yl)-1,5-dimethyl-4,5,6,7-tetrahydro-1H-imidazo[4,5-c]pyridine-2-carboxamide] | Jurkat-PD1 inhibition rate (%) [3]: 97%; IC50 [3]: 4.46 µM
3 | 0.0052 | 2.1 | 0.485 | 1.009 | COc1nc(-c2cccc(-c3cccc(NC(=O)c4nc5c(n4C)CCN(C)C5)c3Cl)c2Cl)ccc1CN[C@H]1CCOC[C@@H]1O (relative stereo) [Embodiment 175, N-(2,2′-Dichloro-3′-(5-((((3,4-trans)-3-hydroxytetrahydro-2H-pyran-4-yl)amino)methyl)-6-methoxypyridin-2-yl)-[1,1′-biphenyl]-3-yl)-1,5-dimethyl-4,5,6,7-tetrahydro-1H-imidazo[4,5-c]pyridine-2-carboxamide] | 
4 | 0.003 |  |  |  | COc1nc(-c2cccc(-c3cccc(NC(=O)c4nc5c(n4C)CCN(C)C5)c3Cl)c2Cl)ccc1CN1CC2(C1)CN(C(=O)C(C)C)C2 [Embodiment 186, N-(2,2′-Dichloro-3′-(5-((6-isobutyryl-2,6-diazaspiro[3.3]heptan-2-yl)methyl)-6-methoxypyridin-2-yl)-[1,1′-biphenyl]-3-yl)-1,5-dimethyl-4,5,6,7-tetrahydro-1H-imidazo[4,5-c]pyridine-2-carboxamide] | 
5 | 0.0033 |  |  |  | COc1nc(-c2cccc(-c3cccc(NC(=O)c4nc5c(n4C)CCN(C)C5)c3Cl)c2Cl)ccc1CNC1COC1 [Embodiment 114, N-(2,2′-Dichloro-3′-(6-methoxy-5-((oxetan-3-ylamino)methyl)pyridin-2-yl)-[1,1′-biphenyl]-3-yl)-1,5-dimethyl-4,5,6,7-tetrahydro-1H-imidazo[4,5-c]pyridine-2-carboxamide] | TGI (%) Day 15 ([4]; 60 mpk po bid, n=7): 74.92%; Tumor volume (mm^3, Mean ± SD) Day 1 ([4]; 60 mpk po bid, n=7): 69.72 ± 21.92 mm^3; Tumor volume (mm^3, Mean ± SD) Day 14 ([4]; 60 mpk po bid, n=7): 140.27 ± 77.92 mm^3; ΔT/ΔC (%) Day 15 ([4]; 60 mpk po bid, n=7): 25.08%; Jurkat-PD1 inhibition rate (%) [3]: 69.0%^; IC50 [3]: 7.63 µM

Row | SMILES | fraction unbound at 5 h, 5 μM [1] | Kp [2] | Drug concentration in plasma [2] [µg/mL] | Drug concentration in tumor [2] [µg/mL] | other results
6 | CCC(=O)N1CC2(CN(Cc3ccc(-c4cccc(-c5cccc(NC(=O)c6nc7c(n6C)CCN(C)C7)c5Cl)c4Cl)nc3OC)C2)C1 [Embodiment 188, N-(2,2′-Dichloro-3′-(6-methoxy-5-((6-propionyl-2,6-diazaspiro[3.3]heptan-2-yl)methyl)pyridin-2-yl)-[1,1′-biphenyl]-3-yl)-1,5-dimethyl-4,5,6,7-tetrahydro-1H-imidazo[4,5-c]pyridine-2-carboxamide] | 0.0052 |  |  |  | 
7 | COc1nc(-c2cccc(-c3cccc(NC(=O)c4nc5c(n4C)CCN(C)C5)c3Cl)c2Cl)ccc1CN1CC2(COC2)C1 [Embodiment 124, N-(3′-(5-((2-Oxa-6-azaspiro[3.3]heptan-6-yl)methyl)-6-methoxypyridin-2-yl)-2,2′-dichloro-[1,1′-biphenyl]-3-yl)-1,5-dimethyl-4,5,6,7-tetrahydro-1H-imidazo[4,5-c]pyridine-2-carboxamide] | 0.0057 |  |  |  | 
8 | COc1nc(-c2cccc(-c3cccc(NC(=O)c4nc5c(n4C)CCN(C)C5)c3Cl)c2Cl)ccc1CN1CC2(C1)CN(C(C)=O)C2 [Embodiment 123, N-(3′-(5-((6-Acetyl-2,6-diazaspiro[3.3]heptan-2-yl)methyl)-6-methoxypyridin-2-yl)-2,2′-dichloro-[1,1′-biphenyl]-3-yl)-1,5-dimethyl-4,5,6,7-tetrahydro-1H-imidazo[4,5-c]pyridine-2-carboxamide] | 0.0095 | 2.8 | 0.821 | 2.285 | TGI (%) Day 15 ([4]; 10 mpk po bid, n=8): 63.70%; Tumor volume (mm^3, Mean ± SD) Day 1 ([4]; 10 mpk po bid, n=8): 75.93 ± 26.17 mm^3; Tumor volume (mm^3, Mean ± SD) Day 14 ([4]; 10 mpk po bid, n=8): 644.86 ± 398.92 mm^3; ΔT/ΔC (%) Day 15 ([4]; 10 mpk po bid, n=8): 36.30%; TGI (%) Day 15 ([4]; 30 mpk po qd, n=8): 67.62%; Tumor volume (mm^3, Mean ± SD) Day 1 ([4]; 30 mpk po qd, n=8): 75.50 ± 25.70 mm^3; Tumor volume (mm^3, Mean ± SD) Day 14 ([4]; 30 mpk po qd, n=8): 582.87 ± 359.11 mm^3; ΔT/ΔC (%) Day 15 ([4]; 30 mpk po qd, n=8): 32.38%
